# Experimental data taken from the supplement of paper PMC10307832.
# Legend:
# Test in all cases: relative viability (nuclei count vs DMSO), 5 days (fraction); higher = more cells survive
# XMD13-2 + AZD7762 = compound: C1CC1C(=O)NC2=NNC3=C2C=CC(=C3)C4=CC(=CC=C4)C(=O)NC5CC5 [XMD13-2] + NC(=O)Nc1cc(-c2cccc(F)c2)sc1C(=O)N[C@H]1CCCNC1 [AZD7762] (partner 0.2 µM)
# How it was run: (§1)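 Relative viability was taken as the ratio of nuclei in treated wells to nuclei in vehicle wells. Lung cancer cell lines in 1536-well plates received compounds by pin tool one day after seeding, either one drug alone or a fixed anchor-drug dose plus five library-drug doses (not always all listed) in √10 steps. Nuclei were counted on 4× images after 5 days of treatment, and values are medians of duplicate plates.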
# ALW-II-49-7 + Pictilisib = compound: Cc1ccc(C(=O)Nc2cccc(C(F)(F)F)c2)cc1Nc1cncc(C(N)=O)c1 [ALW-II-49-7] + CS(=O)(=O)N1CCN(Cc2cc3nc(-c4cccc5[nH]ncc45)nc(N4CCOCC4)c3s2)CC1 [Pictilisib] (partner 1 µM)
# How it was run: as §1
# ALW-II-49-7 + Linsitinib = compound: Cc1ccc(C(=O)Nc2cccc(C(F)(F)F)c2)cc1Nc1cncc(C(N)=O)c1 [ALW-II-49-7] + C[C@]1(O)C[C@@H](c2nc(-c3ccc4ccc(-c5ccccc5)nc4c3)c3c(N)nccn32)C1 [Linsitinib] (partner 1 µM)
# How it was run: as §1
# Dasatinib + Pemetrexed = compound: Cc1nc(Nc2ncc(C(=O)Nc3c(C)cccc3Cl)s2)cc(N2CCN(CCO)CC2)n1 [Dasatinib] + Nc1nc2[nH]cc(CCc3ccc(C(=O)N[C@@H](CCC(=O)O)C(=O)O)cc3)c2c(=O)[nH]1 [Pemetrexed] (partner 0.2 µM)
# How it was run: as §1
Cell Line,relative viability (XMD13-2 + AZD7762; first compound 0.05 µM),relative viability (XMD13-2 + AZD7762; first compound 0.1581 µM),relative viability (XMD13-2 + AZD7762; first compound 0.5 µM),relative viability (XMD13-2 + AZD7762; first compound 1.581 µM),relative viability (XMD13-2 + AZD7762; first compound 5 µM),relative viability (ALW-II-49-7 + Pictilisib; first compound 0.08 µM),relative viability (ALW-II-49-7 + Pictilisib; first compound 0.253 µM),relative viability (ALW-II-49-7 + Pictilisib; first compound 0.8 µM),relative viability (ALW-II-49-7 + Pictilisib; first compound 2.53 µM),relative viability (ALW-II-49-7 + Pictilisib; first compound 8 µM),relative viability (ALW-II-49-7 + Linsitinib; first compound 0.08 µM),relative viability (ALW-II-49-7 + Linsitinib; first compound 0.253 µM),relative viability (ALW-II-49-7 + Linsitinib; first compound 0.8 µM),relative viability (ALW-II-49-7 + Linsitinib; first compound 2.53 µM),relative viability (ALW-II-49-7 + Linsitinib; first compound 8 µM),relative viability (Dasatinib + Pemetrexed; first compound 0.005 µM),relative viability (Dasatinib + Pemetrexed; first compound 0.01581 µM),relative viability (Dasatinib + Pemetrexed; first compound 0.05 µM),relative viability (Dasatinib + Pemetrexed; first compound 0.1581 µM),relative viability (Dasatinib + Pemetrexed; first compound 0.5 µM)
NCI-H358,0.633,0.537,0.515,0.442,0.414,0.361,0.401,0.363,0.405,0.456,0.801,0.661,0.816,0.725,0.742,0.16,0.176,0.143,0.151,0.129
NCI-H1792,0.854,0.78,0.762,0.634,0.846,0.232,0.21,0.215,0.183,0.258,0.402,0.338,0.421,0.321,0.371,0.709,0.672,0.605,0.267,0.067
LU99A,0.378,0.501,0.442,0.327,0.312,0.323,0.325,0.297,0.325,0.293,0.569,0.464,0.573,0.421,0.589,0.191,0.158,0.192,0.176,0.16
H3255,0.949,1.09,0.829,0.847,0.855,0.505,0.43,0.48,0.335,0.418,0.832,0.892,0.94,0.884,0.9,0.578,0.535,0.52,0.49,0.375
NCI-H1734,0.66,0.673,0.548,0.501,0.493,0.491,0.42,0.491,0.48,0.499,0.927,0.911,0.872,0.815,0.828,0.377,0.416,0.387,0.376,0.341
NCI-H650,1.22,1.02,1.14,0.847,1.43,0.893,0.873,0.763,0.39,0.528,0.836,0.793,0.941,0.811,0.54,0.989,0.932,0.818,0.66,0.418
NCI-H1915,0.675,0.774,0.708,0.696,0.646,0.945,1.18,0.966,0.818,0.645,1.13,1.13,1.09,1,0.825,0.489,0.455,0.449,0.337,0.159
NCI-H1651,0.515,0.577,0.486,0.462,0.511,0.525,0.38,0.329,0.491,0.572,0.928,1.02,0.973,0.884,0.996,0.58,0.506,0.485,0.545,0.426
HOP-62,0.917,0.799,0.867,0.598,0.409,0.68,0.97,0.857,0.621,0.491,0.889,1.13,1.03,0.866,0.813,0.284,0.279,0.352,0.326,0.274
CAL-12T,0.625,0.708,0.583,0.563,0.933,0.343,,,0.715,0.395,1.01,0.965,0.736,0.796,0.701,1.23,1.2,1.27,0.929,0.479
LCLC-103H,0.774,0.778,0.768,0.818,0.85,0.544,0.859,0.692,0.67,0.546,0.994,1.15,1.16,1.15,1.05,0.517,0.437,0.481,0.461,0.328
NCI-H3122,1.01,0.973,1.1,1,0.899,0.695,0.458,0.614,0.708,0.971,1.02,0.934,1.1,1.18,1.13,0.208,0.205,0.194,0.198,0.186
NCI-H1395,0.408,0.404,0.423,0.38,0.419,0.646,1.05,0.653,0.581,0.62,1.09,1.22,1.11,0.305,1.08,0.987,1.01,0.603,0.369,0.368
PC-14,0.392,0.337,0.464,0.329,0.446,0.602,0.599,0.696,0.544,0.553,0.933,0.821,0.933,0.979,0.94,0.146,0.121,0.108,0.119,0.124
BEN,0.799,0.777,0.638,0.594,0.729,0.56,0.592,0.608,,0.567,0.69,0.865,0.99,,0.936,0.596,0.572,0.511,0.478,0.448
EPLC-272H,0.294,0.237,0.0561,0.156,0.231,0.258,0.359,0.328,0.37,0.29,0.954,0.922,1.15,1.26,1.18,0.385,0.356,0.286,0.154,0.198
